Reference: ChEMBL document CHEMBL1123941, “Potential antisecretory antidiarrheals. 1. Alpha 2-adrenergic aromatic aminoguanidine hydrazones” (1988)
The source made the active and inactive calls. The rule behind the calls is not given here.

Key:
Oryctolagus cuniculus [1] = species on record: Oryctolagus cuniculus; assay: Inhibition of increase in intestine potential difference caused by diarrhea-inducing secretagogues in rabbits using 'Using chamber'; Inactive; type: functional, organism-based
Rattus norvegicus [2] = species on record: Rattus norvegicus; assay: Inhibition of cholera toxin induced intestinal fluid secretion in rat; I= Inactive; type: functional, organism-based
Rattus norvegicus [3] = species on record: Rattus norvegicus; assay: Inhibition of cholera toxin induced intestinal fluid secretion in rat; type: functional; settings: read-out: ID50 (the source's name)
Oryctolagus cuniculus [4] = species on record: Oryctolagus cuniculus; assay: Inhibition of increase in intestine potential difference caused by diarrhea-inducing secretagogues in rabbits using 'Using chamber'; Active 1.0x 10e-6 M; type: functional, organism-based
Oryctolagus cuniculus [5] = species on record: Oryctolagus cuniculus; assay: Inhibition of increase in intestine potential difference caused by diarrhea-inducing secretagogues in rabbits using 'Using chamber'; Active at 1.0 x 10e-6 M; type: functional, organism-based
Oryctolagus cuniculus [6] = species on record: Oryctolagus cuniculus; assay: Inhibition of increase in intestine potential difference caused by diarrhea-inducing secretagogues in rabbits using ''Using chamber''; Active at 1.1 x 10e-5 M; type: functional, organism-based

SMILES | inhibition (Oryctolagus cuniculus [1]) | ID50 (Rattus norvegicus [2]) | ED50 (Rattus norvegicus [3]) [mg/kg] | also measured
Cc1c(N)cccc1/C=N/N=C(N)N | inactive | inactive |  | 
N=C(N)N/N=C1\CCCc2ccccc21 | inactive |  | 30.6 | 
N=C(N)N/N=C/c1ccnc2ccccc12 | inactive | inactive |  | 
N=C(N)N/N=C/c1cccc2ccccc12 | inactive |  | 34.6 | 
Cc1cc(C)c(/C=N/N=C(N)N)c(C)c1 | inactive |  | 16.6 | 
CC1CCc2ccccc2/C1=N/N=C(N)N (stereo unspecified) |  | inactive |  | 
Cc1cc(O)cc(C)c1/C=N/N=C(N)N | inactive |  | 3.4 | 
COc1cccc2c1CCC/C2=N\N=C(N)N |  | inactive |  | 
N=C(N)N/N=C/c1ccc2ccccc2c1 | inactive | inactive |  | 
COc1ccc2c(c1)CCC/C2=N\N=C(N)N |  |  | 20.5 | 
Cc1ccccc1/C=N/N=C(N)N | inactive | inactive |  | 
Cc1cc(/C=N/N=C(N)N)cc(C)c1O | inactive | inactive |  | 
COc1ccc2c(c1)/C(=N/N=C(N)N)CCC2 |  | inactive |  | 
N=C(N)N/N=C1\CCc2ccccc21 |  | inactive |  | 
N=C(N)N/N=C/c1c(Cl)cccc1Cl [GUANABENZ] |  |  | 1.3 | inhibition (Oryctolagus cuniculus [4]): Active
Cc1cccc(C)c1/C=N/N=C(N)N |  |  | 1.6 | inhibition (Oryctolagus cuniculus [5]): Active at 1.0 x 10e-6 M
Cc1ccc(N)cc1/C=N/N=C(N)N |  | inactive |  | 
COc1cc(C)c(/C=N/N=C(N)N)c(C)c1 | inactive |  | 27 | 
Cc1cccc(C)c1/C=N/NC1=NCCN1 |  |  | 7.9 | 
C/C(=N\N=C(N)N)c1c(C)cccc1C | inactive | inactive | 13.3 | inhibition (Oryctolagus cuniculus [6]): Active at 1.1 x 10e-5 M
Cc1c(N)cc(N)c(C)c1/C=N/N=C(N)N |  | inactive |  | 
